Laboratory results: US20160143884A1, “USE OF TETRAHYDROINDAZOLYLBENZAMIDE AND TETRAHYDROINDOLYLBENZAMIDE DERIVATIVES FOR THE TREATMENT OF HUMAN IMMUNODEFICIENCY VIRUS (HIV) AND ACQUIRED IMMUNE DEFICIENCY SYNDROME (AIDS)” (Esanex, Inc., priority 2014, published 2016)

Experiments:
[1] = system: Rev-dependent VLP production; assay: Virus like particles (VLP) production in 293T cells, Gag(p24) ELISA; format: cell-based; settings: 293T cells, 1, 0.1 and 0.01
From the text: 293T Cells were transfected with a gag-pol-RRE construct. When Rev is present and/or functioning, Gag is produced, forms virus like particles (VLP), and VLP are secreted into the culture supernatant. VLP in the media are quantified using a quantitative Gag(p24) ELISA.

[2] = system: VSVg-pseudotyped NL4-3.Luc.E-R- virus; assay: microbe, parasite or virus in culture; format: cell-based, HIV-1; settings: Human immunodeficiency virus 1, NL43, SUP-T1, read-out: EC50 of inhibition of HIV replication
[3] = system: Tat-mediated activation of the HIV-LTR promoter; assay: TAT-mediated transactivation, HIV-LTR-Luc reporter; format: cell-based, HIV-1
Procedure: SupT1 cells were transfected with a HIV-LTR-Luc construct (LAI), +/−Tat (pcTAT, subtype B), along with a constitutively active renilla-luciferase construct (to normalize for transfection efficiency). Firefly and renilla activity were monitored (sequentially, same sample) 24 hours post transfection. DMSO was used as a negative control; and Compound 9 was added at 1, 0.1, and 0.001 μM. These reactions were done in singlet (pilot). TZM-bl cells are HeLa derived cells that contain CD4, CCR5, and an integrated HIV promoter (LTR) fused to firefly luciferase. Untransfected cells (LTR) or Tat-transfected cells (LTR+TAT) were incubated with Compound 9 at the indicated doses at the time of transfection. DMSO was used as a negative control. Luciferase activity was measured 20 hours post-transfection using a commercially-available luciferase substrate (Promega) and the results are shown in FIG. 8. […] Repeat results are illustrated in Tat-Experiment 2 graph.

[4] = system: single cycle HIV in SupT1 cells
Procedure: HIV-integration was evaluated in a cell based assay with ALU-PCR read out. Using single cycle virus (Env-deficient, containing Luc, pseudotyped with VSV-g), SupT1 cells were infected for 36 hours. Cells were treated with DMSO, Raltegravir (integrase inhibitor), 500 nM Compound 9, or Nelfinavir (protease inhibitor). It was expected that Raltegravir should affect both Luc and ALU-PCR data and Nelfinavir should not (downstream of both). Cells were split in half-one part for Luc-assays, and one part for ALU-PCR.

Hepatitis B Virus (HBV) = assay: Anti-HBV assay, real-time qPCR of extracellular HBV DNA in HepG2 2.2.15; format: cell-based
Procedure: The anti-HBV assay employed real-time qPCR (TaqMan) to directly measure extracellular HBV DNA copy number. HepG2-2.2.15 cells were plated in 96-well microtiter plates. Only the interior wells were utilized to reduce “edge effects” observed during cell culture; the exterior wells were filled with complete medium to help minimize sample evaporation. After 16-24 hours the confluent monolayer of HepG2-2.2.15 cells was washed and the medium replaced with complete medium containing various concentrations of a test compound in triplicate. 3TC was used as positive control, while media alone was added to cells as negative control (virus control, VC). Three days later the culture medium was replaced with fresh medium containing the appropriately diluted drug. Six days following the initial administration of the test compound, the cell culture supernatant collected, treated with pronase and then used in a real-time quantitative TaqMan qPCR assay. The PCR-amplified HBV DNA was detected in real-time by monitoring increases in fluorescence signals that result from the exonucleolytic degradation of a quenched fluorescent probe molecule that hybridizes to the amplified HBV DNA. For each PCR amplification, a standard curve was simultaneously generated using dilutions of purified HBV DNA. Antiviral activity was calculated from the reduction in HBV DNA levels (IC50). CellTiter 96® AQueous One Solution Cell Proliferation Assay kit (Promega) was employed to measure cell viability which was used to calculate cytotoxicity (TC50). The therapeutic index (TI) was calculated as TC50/IC50.

[5] = MTS staining for PBMC viability to measure cytotoxicity; format: cell-based, human; settings: human, PBMCs
From the text: (§1) Pooling (mixing) of mononuclear cells from more than one donor is used to minimize the variability observed between individual donors, which results from quantitative and qualitative differences in HIV infection and overall response to the PHA and IL-2 of primary lymphocyte populations. Each plate contains virus/cell control wells (cells plus virus), experimental wells (drug plus cells plus virus) and compound control wells (drug plus media without cells, necessary for MTS monitoring of cytotoxicity). […] Therefore, infected wells are used in the assessment of both antiviral activity and cytotoxicity. […] The PBMC cultures are maintained for seven days following infection at 37° C., 5% CO2. After this period, cell-free supernatant samples are collected for analysis of reverse transcriptase activity and/or p24 antigen content. Following removal of supernatant samples, compound cytotoxicity is measured by addition of MTS to the plates for determination of cell viability. Wells are also examined microscopically and any abnormalities are noted. MTS Staining for PBMC Viability to Measure Cytotoxicity Protocol: At assay termination, assay plates are stained with the soluble tetrazolium-based dye MTS (CellTiter 96 Reagent, Promega) to determine cell viability and quantify compound toxicity. The mitochondrial enzymes of metabolically active cells metabolize MTS to yield a soluble formazan product. This allows the rapid quantitative analysis of cell viability and compound cytotoxicity. […] At termination of the assay, 20 uL of MTS reagent is added per well. The microtiter plates are then incubated 4-6 hrs at 37° C. The incubation intervals were chosen based on empirically determined times for optimal dye reduction. Adhesive plate sealers are used in place of the lids, the sealed plate is inverted several times to mix the soluble formazan product and the plate is read spectrophotometrically at 490/650 nm with a Molecular Devices Vmax or SpectraMaxPlus plate reader.

PBMCs = assay: as above; format: cell-based, human
From the text: as §1

SIVmac251 virus = assay: SIV inhibition in NHP PBMC, p27 antigen capture assay; format: cell-based; settings: 0.0005 to 50 μM
Procedure: Non-human primate (NHP) cells were activated in IL-2 growth medium (GM) containing PHA-P at a concentration of 10 μg/ml for 24 hrs. The next day cells were washed and re-suspended in fresh IL-2 GM. Compound 9 was serially diluted at concentrations ranging from 0.0005 to 50 μM in a 96 well u-bottom plate containing IL-2 GM. Activated cells were then added to the wells of the plate. SIVmac251 virus, diluted 1:25 in IL-2 GM, was subsequently added to the appropriate wells containing the compounds of interest and the cells except for controls. This virus represents the same virus preparation utilized for infection of the animals. The plate was then incubated overnight and, after extensive washing the next day, the plate was then placed back in the incubator at 37° C., 5% CO2.
On day 4-5, of the assay, supernatants were harvested and a SIV p27 antigen capture assay was used to detect SIV p27 in the supernatant. […] The percentage of inhibition in each experiment is reported in FIGS. 3b and 3c for test 1 and 2, respectively.

[6] = Cell viability (CellTiter 96 AQueous One) in HepG2 2.2.15; format: cell-based; settings: human, HepG2-2.2.15 cells, read-out: Cytotoxicity TC50
Procedure: The anti-HBV assay employed real-time qPCR (TaqMan) to directly measure extracellular HBV DNA copy number. HepG2-2.2.15 cells were plated in 96-well microtiter plates. Only the interior wells were utilized to reduce “edge effects” observed during cell culture; the exterior wells were filled with complete medium to help minimize sample evaporation. After 16-24 hours the confluent monolayer of HepG2-2.2.15 cells was washed and the medium replaced with complete medium containing various concentrations of a test compound in triplicate. 3TC was used as positive control, while media alone was added to cells as negative control (virus control, VC). Three days later the culture medium was replaced with fresh medium containing the appropriately diluted drug. Six days following the initial administration of the test compound, the cell culture supernatant collected, treated with pronase and then used in a real-time quantitative TaqMan qPCR assay. The PCR-amplified HBV DNA was detected in real-time by monitoring increases in fluorescence signals that result from the exonucleolytic degradation of a quenched fluorescent probe molecule that hybridizes to the amplified HBV DNA. […] Antiviral activity was calculated from the reduction in HBV DNA levels (IC50). […] The therapeutic index (TI) was calculated as TC50/IC50.

CC1(C)CC(=O)c2c(C(F)(F)F)nn(-c3ccc(C(N)=O)c(N[C@H]4CC[C@H](O)CC4)c3)c2C1 [Compound 9, 4-(6,6-Dimethyl-4-oxo-3-trifluoromethyl-4,5,6,7-tetrahydro-indazol-1-yl)-2-(trans-4-hydroxy-cyclohexylamino)-benzamide]
Inhibition of Rev-dependent VLP production [1]: does not appear to robustly inhibit
EC50 [2]: 10 nM
Tat-mediated transactivation [3]: inhibit
Integration of HIV-1 viral DNA into host cell [4]: inhibit
Reduction of single cycle HIV ([4]; 500 nM, SupT1 cells infected 36 hours): at least 90%
Activity against hepatitis B virus (in words) (Hepatitis B Virus (HBV)): inactive
Selectivity Index TI (TC50/IC50) (Hepatitis B Virus (HBV); HBV in HepG2 2.2.15): 0.12
IC50 (Hepatitis B Virus (HBV); Hepatitis B virus, 144 h, HBV in HepG2 2.2.15, six days, read-out: Antiviral Activity IC50 (reduction in HBV DNA levels)): 600 nM
IC90 (Hepatitis B Virus (HBV); Hepatitis B virus, HBV in HepG2 2.2.15): > 2000 nM
CC50 at 7 days [5]: 30 nM
TC 90% (90% cytotoxicity) (PBMCs): >2000 nM
TC 95% (95% cytotoxicity) (PBMCs): >2000 nM
Amount of p27 in the supernatant of the cultures (SIVmac251 virus): dose-dependent reduction
CC50 at 6 days [6]: 73 nM
